Legend:
[1] = in vivo
[2] = system: marine copepod Arcatia tonsa; assay: Static 48 hour toxicity test on marine copepod (draft ISO 14669:1999(E)); assay type: in vivo; settings: test range 200.0 to 2000.0 mg l-1
Procedure: Test concentrations of sodium molybdate crystalline were prepared over the range 200.0 mg 1^−1 to 2000.0 mg 1^−1.

[3] = Amounts of electron transfer agents needed to reduce 2500 ppm ferric ion in less than five minutes (Example III); settings: 15 lbs./Mgal Na2MoO4 in 15% HCl, room temperature
Procedure: The above concentrations were arrived at from room temperature experiments.
Next, tests were conducted to determine the optimum amounts of the electron transfer agent(s) that should be employed in the inventive acidizing composition. Each test fluid included 1% by volume thioglycolic acid, based on the total volume of the acid solution and was contaminated with 2500 ppm ferric ion (by adding a sufficient amount of ferric chloride to the fluid).
These fluids also included the primary electron transfer agent, either sodium molybdate or ammonium molybdate. The amount the molybdate utilized was varied.
These fluids also included the primary electron transfer agent, either sodium molybdate or ammonium molybdate, and the supplemental electron transfer agent (potassium iodide). The amounts of the molybdate and potassium iodide utilized were varied.
The tests were carried out at room temperature. The test fluids were contaminated with 2500 ppm of ferric ion by adding a corresponding amount of iron chloride (FeCl3.H2O) thereto.
It was determined that a complete reduction had taken place when the test fluids changed back to the red-brown color.
It was determined that a complete reduction had taken place when the test fluids changed back to the emerald green color (verified by UV-VIS experiments).

SMILES	concentration found to be toxic [1] [mg/L]	24 hour EC50 (concentration which immobilized 50% of the copepods) ([2]; 24 hours) [mg/L]	48 hour EC50 (concentration which immobilized 50% of the copepods) ([2]; 48 hours) [mg/L]	time required for reduction of 2500 ppm Fe(III) to Fe(II) [3] [min]
[Cl][Cu] [cuprous chloride]	≥ 0.01	–	–	–
[Na+].[Na+].[O]=[Mo](=[O])([O-])[O-] [sodium molybdate crystalline, sodium molybdate]	–	> 2000.0	> 2000.0	2 to 3

— US6534448B1, “Composition and method for acidizing wells and equipment without damaging precipitation” (Halliburton Energy Services, Inc., priority 2000, dated 2003)
